Data as given in patent publication US9416144B2, “Benzoxazine oxazolidinone compound, preparation method and application thereof” (priority 2012, dated 2016).
Values after ≈ are worked out from the molar mass of the structure shown.

Tests used:
[1] = test system: Staphylococcus aureus resistant strains (6 strains); assay: In vitro antibacterial activity, MIC by agar double dilution method; assay type: cell-based; details: clinical isolates
Text: (§1) Experimental method: The agar double dilution method (Antimicrob. Agents and Chemother, 40, 1996, 720-726) was used to determine the minimum inhibitory concentration (MIC) of the series of compounds of the invention and the positive control drug linezolid for the test strains. The multipoint inoculation system (Denley A400) was employed to inoculate the bacteria on the agar plate surface with different concentrations of drugs; inoculation amount on each point was about 10^6 CFU/mL. The plates were incubated at 35° C. for 16 hrs before the results were observed. The lowest drug concentration contained in the Petri dish without bacterial growth was used as the minimum inhibitory concentration (MIC value) of the drug fir that strain.
(§2) Test strains: All the test strains were clinically isolated pathogens which were collected from the Nanjing region, and they were re-identified by routine methods before use. 31 strains of the clinically isolated pathogens were chosen, including 6 strains of Enterococcus, 5 Staphylococcus aureus sensitive strains; 5 Staphylococcus epidermidis sensitive strains; 6 Staphylococcus aureus resistant strains; 5 Staphylococcus epidermidis resistant strains; and 4 Streptococcus pneumoniae resistant strains.
(§3) Compounds to be tested were first added 2 ml of DMSO to help them fully dissolved, then added sterile double distilled water to the desired concentration; to all the Petri dish with added drug liquid were added 20 mL MIT medium which was heat-melted to be liquid-like, to make the final drug concentration in the Petri dish to be 64, 32, 16, 8, 4, 2, 1, 0.5, 0.25, 0.125, 0.0625, and 0.031 μg/mL.
(§4) The positive control group was LZ (linezolid, brand name Zyvox, approved by the FDA in 2000 to be firstly sold in the United States, which is the first and also the only one of oxazolidinone antibacterial drugs allowed to enter clinical application).

[2] = test system: Staphylococcus epidermidis resistant strains (5 strains); assay: as above; assay type: cell-based; details: clinical isolates
Text: as §1, §2, §3, §4

Enterococcus (6 strains) = assay: as above; assay type: cell-based; details: clinical isolates, 35° C. 16 hrs
Text: as §1, §2, §3, §4

[3] = test system: Streptococcus pneumoniae resistant strains (4 strains); assay: as above; assay type: cell-based; details: clinical isolates
Text: as §1, §2, §3, §4

[4] = test system: Staphylococcus aureus sensitive strains (5 strains); assay: as above; assay type: cell-based; details: clinical isolates
Text: as §1, §2, §3, §4

[5] = test system: Staphylococcus epidermidis sensitive strains (5 strains); assay: as above; assay type: cell-based; details: clinical isolates
Text: as §1, §2, §3, §4

[6] = test system: LREFL, linezolid-resistant strain of Enterococcus faecalis (3 strains); assay: In vitro antibacterial activity on linezolid-resistant strains, MIC in MHB broth, 96-well plate; assay type: cell-based; details: LREFL (3 strains)
Description: (§5) The stock solution of the subject drugs in DMSO was 10 mg/mL. MHA (agar) and MHB (broth) were both prepared according to the manufacturer's requirements.
(§6) Double dilution of drugs: under aseptic operation, 12.8 μL of liquid drug was added into the first well of a 96-well plate, and then added 27.2 μL DMSO and mixed. The 2nd to 12nd wells were all added 20 μL DMSO. 20 μL was taken from the first well to the second well and mixed up. 20 μL was taken from the second well to the third well, which was repeated till the 11st well, from which was taken 20 μL and discarded. The 12nd well only had 20 μL of DMSO as the growth control. Then 180 μL of sterile water was added to each well and mixed up. The drug used as control was prepared by the same method.
(§7) The solutions with different concentrations of antibacterial drugs after the double dilution and DMSO were added into a sterile 96-well plate separately, 10 μL per well, ready for use.
(§8) Single colonies were picked from the MHA plates into 5 ml of sterile saline and mixed up.
(§9) Light transmittance was adjusted to 80% with a spectrophotometer. After being diluted by 1:200 with MHB, 90 μL of such bacteria liquid was added into each of the wells which already had 10 μL of the drug liquid, mixed up, and incubated in a regular biochemical incubator at 35° C. for 20 hrs before the results were read out. At this time, the drug concentration in the 1st to 12nd wells was 32, 16, 8, 4, 2, 1, 0.5, 0.25, 0.125, 0.0625, 0.03125, 0 μg/mL, respectively.
(§10) Two parallel groups were set up for the same diluted concentration of a drug.
(§11) 4) Results Reading and Judgment: Refer to the Standard Recommended by the CLSI, 2010 Edition.
as §4

[7] = test system: LRSE, linezolid-resistant strain of Staphylococcus epidermidis (1 strain); assay: as above; assay type: cell-based; details: LRSE (1 strain)
Description: as §5, §6, §7, §8, §9, §10, §11, §4

[8] = test system: LRSA, linezolid-resistant strain of Staphylococcus aureus (3 strains); assay: as above; assay type: cell-based; details: LRSA (3 strains)
Description: as §5, §6, §7, §8, §9, §10, §11, §4

[9] = test system: LREFA, linezolid-resistant strain of Enterococcus faecium (3 strains); assay: as above; assay type: cell-based; details: LREFA (3 strains)
Description: as §5, §6, §7, §8, §9, §10, §11, §4

[10] = test system: S.a. ATCC 29213 (standard strain of Staphylococcus aureus); assay: as above; assay type: cell-based; details: ATCC29213, 35° C. 20 hrs
Description: as §5, §6, §7, §8, §9, §10, §11, §4

MIC [1] | MIC [2] | MIC (Enterococcus (6 strains)) | MIC [3] | MIC [4] | MIC [5] | MIC [6] | MIC [7] | MIC [8] | MIC [9] | MIC [10] | melting point | SMILES
0.125 to 0.5 µg/mL (≈ 0.338 to 1.35 µM) | 0.125 to 0.5 µg/mL (≈ 0.338 to 1.35 µM) | 1 µg/mL (≈ 2.7 µM) | 0.25 to 0.5 µg/mL (≈ 0.675 to 1.35 µM) | 0.25 µg/mL (≈ 0.675 µM) | 0.125 to 0.5 µg/mL (≈ 0.338 to 1.35 µM) | 8 µg/mL (≈ 21.6 µM) | 4 µg/mL (≈ 10.8 µM) | 8 µg/mL (≈ 21.6 µM) | 4 to 8 µg/mL (≈ 10.8 to 21.6 µM) | 0.5 µg/mL (≈ 1.35 µM) | 164 to 166 °C | C[C@@H](O)C(=O)c1ccc(-c2ccc3c(c2)OC[C@H]2[C@H](CO)OC(=O)N32)cn1 [Compound 1, (3R,3aS)-3-(hydroxylmethyl)-7-(6-((R)-2-hydroxylpropionyl)pyridin-3-yl)-3a,4-dihydrobenzo[b]oxazolo[3,4-d][1,4]oxazin-1(3H)-one]
0.5 to 1 µg/mL (≈ 1.32 to 2.64 µM) | 0.5 to 1 µg/mL (≈ 1.32 to 2.64 µM) | 1 to 2 µg/mL (≈ 2.64 to 5.27 µM) | 0.5 to 2 µg/mL (≈ 1.32 to 5.27 µM) | 0.5 to 1 µg/mL (≈ 1.32 to 2.64 µM) | 0.5 to 1 µg/mL (≈ 1.32 to 2.64 µM) | 4 to 8 µg/mL (≈ 10.5 to 21.1 µM) | 4 µg/mL (≈ 10.5 µM) | 8 µg/mL (≈ 21.1 µM) | 4 to 8 µg/mL (≈ 10.5 to 21.1 µM) | 0.5 µg/mL (≈ 1.32 µM) |  | O=C1O[C@@H](CO)[C@@H]2COc3cc(-c4ccc(Cn5cncn5)nc4)ccc3N12 [Compound 2, (3R,3aS)-7-(6-((1H-1,2,4-triazol-1-yl)methyl)pyridin-3-yl)-3-(hydroxylmethyl)-3a,4-dihydrobenzo[b]oxazolo[3,4-d][1,4]oxazin-1(3H)-one]
0.125 to 0.25 µg/mL (≈ 0.387 to 0.773 µM) | 0.125 to 0.25 µg/mL (≈ 0.387 to 0.773 µM) | 1 µg/mL (≈ 3.09 µM) | 0.25 to 0.5 µg/mL (≈ 0.773 to 1.55 µM) | 0.25 to 0.5 µg/mL (≈ 0.773 to 1.55 µM) | 0.25 µg/mL (≈ 0.773 µM) | 4 µg/mL (≈ 12.4 µM) | 4 µg/mL (≈ 12.4 µM) | 4 to 8 µg/mL (≈ 12.4 to 24.7 µM) | 2 to 4 µg/mL (≈ 6.19 to 12.4 µM) | 0.25 µg/mL (≈ 0.773 µM) |  | N#Cc1ccc(-c2ccc3c(c2)OC[C@H]2[C@H](CO)OC(=O)N32)cn1 [Compound 3, 5-((3R,3aS)-3-(hydroxylmethyl)-1-oxo-1,3,3a,4-tetrahydrobenzo[b]oxazolo[3,4-d][1,4]oxazin-7-yl)picolinonitrile]
0.5 to 1 µg/mL (≈ 1.3 to 2.61 µM) | 0.5 to 1 µg/mL (≈ 1.3 to 2.61 µM) | 1 µg/mL (≈ 2.61 µM) | 0.5 to 1 µg/mL (≈ 1.3 to 2.61 µM) | 0.5 to 1 µg/mL (≈ 1.3 to 2.61 µM) | 0.5 to 1 µg/mL (≈ 1.3 to 2.61 µM) | 4 to 8 µg/mL (≈ 10.4 to 20.9 µM) | 2 µg/mL (≈ 5.22 µM) | 4 µg/mL (≈ 10.4 µM) | 4 to 8 µg/mL (≈ 10.4 to 20.9 µM) | 0.5 µg/mL (≈ 1.3 µM) |  | O=C1OCCN1c1ccc(-c2ccc3c(c2)OC[C@H]2[C@H](CO)OC(=O)N32)cn1 [Compound 5, (3R,3aS)-3-(hydroxylmethyl)-7-(6-(2-oxazolidino-3-yl)pyridin-3-yl)-3a,4-dihydrobenzo[b]oxazolo[3,4-d][1,4]oxazin-1(3H)-one]
